Drawing on PubChem BioAssay AID210 (DTP/NCI, 2004), this text covers T/C for 13 compounds.

The structures appear in SMILES notation. Toxic doses and inconclusive results are not listed.

This assay deals with CD2F1 mice, ip Colon 26 adenocarcinoma, median survival T/C. As to the kind of experiment: NCI In Vivo Anticancer Drug Screen. Data for tumor model Colon 26 Adenocarcinoma (intraperitoneal) in CD2F1 (CDF1) mice. To be noted: endpoint: median survival time, higher = longer survival. As for the experimental part:
The antitumor activity of compounds was measured in mice bearing transplantable tumors. Survival or tumor size were measured and the results are expressed as the measurement made in the treated group (T) divided by the measurement made in the vehicle treated control group (C). The tumor model used in this assay is Colon 26 Adenocarcinoma (intraperitoneal) in CD2F1 (CDF1) mice

Where [1] appears, read: dose: 400.0 mg/kg/injection, schedule: Q04DX003 (ip), vehicle: saline with Tween-80.

Take `O=C(O)CC(NC(=O)CP(=O)(O)O)C(=O)O` (centres undefined): the T/C reads like this: (dose: 108.0 mg/kg/injection, schedule: Q04DX003 (ip), vehicle: saline) 119 % of control; (dose: 180.0 mg/kg/injection, schedule: Q04DX003 (ip), vehicle: saline) 115 % of control; (dose: 180.0 mg/kg/injection, schedule: Q04DX003 (ip), vehicle: water) 161 % of control; (dose: 300.0 mg/kg/injection, schedule: Q04DX003 (ip), vehicle: water) 106 % of control; (dose: 833.0 mg/kg/injection, schedule: Q04DX003 (ip), vehicle: saline) 187 % of control.

Consider `CNCCNc1ccc(NCCNC)c2c1C(=O)c1ccccc1C2=O`, for which the T/C (dose: 1.0 mg/kg/injection, schedule: Q01DX009 (ip), vehicle: acid diluted with saline) is 154 % of control; the T/C (dose: 1.5 mg/kg/injection, schedule: Q01DX009 (ip), vehicle: acid diluted with saline) is 205 % of control; the T/C (dose: 2.0 mg/kg/injection, schedule: Q01DX009 (ip), vehicle: acid diluted with saline) is 219 % of control; the T/C (dose: 3.0 mg/kg/injection, schedule: Q01DX009 (ip), vehicle: acid diluted with saline) is 236 % of control; the T/C (dose: 4.0 mg/kg/injection, schedule: Q01DX009 (ip), vehicle: acid diluted with saline) is 215 % of control; the T/C (dose: 6.0 mg/kg/injection, schedule: Q01DX009 (ip), vehicle: acid diluted with saline) is 226 % of control. The T/C is 225 % of control (dose: 8.0 mg/kg/injection, schedule: Q01DX009 (ip), vehicle: acid diluted with saline); 236 % of control (dose: 12.0 mg/kg/injection, schedule: Q01DX009 (ip), vehicle: acid diluted with saline); 115 % of control (dose: 16.0 mg/kg/injection, schedule: Q01DX009 (ip), vehicle: acid diluted with saline).

As for `CC(C)CCC[C@@H](C)[C@H]1CC[C@H]2[C@@H]3CC=C4C[C@@H](OC(=O)Cc5ccc(N(CCCl)CCCl)cc5)CC[C@]4(C)[C@H]3CC[C@]12C`, the T/C (dose: 50.0 mg/kg/injection, schedule: Q04DX002 (ip), vehicle: Klucel (hydroxypropylcellulose) (HPC)) is 91 % of control; the T/C (dose: 100.0 mg/kg/injection, schedule: Q04DX002 (ip), vehicle: Klucel (hydroxypropylcellulose) (HPC)) is 101 % of control; the T/C (dose: 200.0 mg/kg/injection, schedule: Q04DX002 (ip), vehicle: Klucel (hydroxypropylcellulose) (HPC)) is 101 % of control; the T/C (dose: 400.0 mg/kg/injection, schedule: Q04DX002 (ip), vehicle: Klucel (hydroxypropylcellulose) (HPC)) was 101 % of control.

For the compound `O=[N+]([O-])/C=C\c1ccc2c(c1)OCO2`, the T/C reads like this: (dose: 3.12 mg/kg/injection, schedule: Q04DX003 (ip), vehicle: Klucel (hydroxypropylcellulose) (HPC)) 87 % of control; (dose: 6.25 mg/kg/injection, schedule: Q04DX003 (ip), vehicle: Klucel (hydroxypropylcellulose) (HPC)) 105 % of control; (dose: 25.0 mg/kg/injection, schedule: Q04DX003 (ip), vehicle: Klucel (hydroxypropylcellulose) (HPC)) 90 % of control.

On to `CCC1(O)CC2CN(CCc3c([nH]c4ccccc34)C(C(=O)OC)(c3cc4c(cc3OC)N(C)C3C(O)(C(=O)NCCSSCCNC(=O)C5(O)C(O)C6(CC)C=CCN7CCC8(c9cc(C%10(C(=O)OC)CC%11CN(CCc%12c%10[nH]c%10ccccc%12%10)CC(O)(CC)C%11)c(OC)cc9N(C)C58)C76)C(O)C5(CC)C=CCN6CCC43C65)C2)C1` (centres undefined), for which the T/C is, setting by setting: (dose: 540.0 micrograms/kg/injection, schedule: Q04DX003 (ip), vehicle: saline) 114 % of control; (dose: 900.0 micrograms/kg/injection, schedule: Q04DX003 (ip), vehicle: saline) 114 % of control; (dose: 1500.0 micrograms/kg/injection, schedule: Q04DX003 (ip), vehicle: saline) 96 % of control.

In the case of `Cc1c2oc3c(C)c(N)cc(C(=O)NC4C(=O)NC(C(C)C)C(=O)N5CCCC5C(=O)N(C)CC(=O)N(C)C(C(C)C)C(=O)OC4C)c3nc-2c(C(=O)NC2C(=O)NC(C(C)C)C(=O)N3CCCC3C(=O)N(C)CC(=O)N(C)C(C(C)C)C(=O)OC2C)c(N)c1=O` (centres undefined), the T/C reads like this: (dose: 500.0 micrograms/kg/injection, schedule: Q01DX001 (ip), vehicle: saline + alcohol) 102 % of control; (dose: 1000.0 micrograms/kg/injection, schedule: Q01DX001 (ip), vehicle: saline + alcohol) 102 % of control.

Regarding `Nc1ccc(Cl)cc1N`, the T/C by setting is: (dose: 12.5 mg/kg/injection, schedule: Q04DX003 (ip), vehicle: saline + Tween-80 + alcohol) 96 % of control; (dose: 12.5 mg/kg/injection, schedule: Q04DX003 (ip), vehicle: saline with Tween-80) 100 % of control; (dose: 25.0 mg/kg/injection, schedule: Q04DX003 (ip), vehicle: saline + Tween-80 + alcohol) 98 % of control; (dose: 25.0 mg/kg/injection, schedule: Q04DX003 (ip), vehicle: saline with Tween-80) 100 % of control; (dose: 50.0 mg/kg/injection, schedule: Q04DX003 (ip), vehicle: saline + Tween-80 + alcohol) 102 % of control; (dose: 50.0 mg/kg/injection, schedule: Q04DX003 (ip), vehicle: saline with Tween-80) 100 % of control. Moreover, the T/C (dose: 100.0 mg/kg/injection, schedule: Q04DX003 (ip), vehicle: saline + Tween-80 + alcohol) was 104 % of control; the T/C (dose: 100.0 mg/kg/injection, schedule: Q04DX003 (ip), vehicle: saline with Tween-80) is 102 % of control; the T/C (dose: 200.0 mg/kg/injection, schedule: Q04DX003 (ip), vehicle: saline + Tween-80 + alcohol) was 107 % of control; the T/C (dose: 200.0 mg/kg/injection, schedule: Q04DX003 (ip), vehicle: saline with Tween-80) was 106 % of control; the T/C under setting [1] was 109 % of control.

With `CCOC(=O)CNC(=O)CCCCSc1ncnc2nc[nH]c12`, the T/C under setting [1] was 104 % of control; the T/C (dose: 800.0 mg/kg/injection, schedule: Q04DX003 (ip), vehicle: saline with Tween-80) is 97 % of control; the T/C (dose: 1600.0 mg/kg/injection, schedule: Q04DX003 (ip), vehicle: saline with Tween-80) was 88 % of control.

For `CC1OC(=O)C(C(C)C)NC(=O)C(C(C)C)OC(=O)C(C(C)C)NC(=O)C(C)OC(=O)C(C(C)C)NC(=O)C(C(C)C)OC(=O)C(C(C)C)NC(=O)C(C)OC(=O)C(C(C)C)NC(=O)C(C(C)C)OC(=O)C(C(C)C)NC1=O` (centres undefined), the T/C is 181 % of control (dose: 0.75 mg/kg/injection, schedule: Q04DX003 (ip), vehicle: Klucel (hydroxypropylcellulose) (HPC)); 186 % of control (dose: 1.5 mg/kg/injection, schedule: Q04DX003 (ip), vehicle: Klucel (hydroxypropylcellulose) (HPC)); 200 % of control (dose: 3.0 mg/kg/injection, schedule: Q04DX003 (ip), vehicle: Klucel (hydroxypropylcellulose) (HPC)); 193 % of control (dose: 6.0 mg/kg/injection, schedule: Q04DX003 (ip), vehicle: Klucel (hydroxypropylcellulose) (HPC)); 165 % of control (dose: 12.0 mg/kg/injection, schedule: Q04DX003 (ip), vehicle: Klucel (hydroxypropylcellulose) (HPC)).

For `COc1cccc2c1C(=O)c1c(O)c3c(c(O)c1C2=O)C[C@@](O)(C(=O)CO)C[C@@H]3OC1CC(N(C)C)C(O)C(C)O1` (some centres undefined), the T/C by setting is: (dose: 2.16 mg/kg/injection, schedule: Q04DX003 (ip), vehicle: water) 103 % of control; (dose: 5.6 mg/kg/injection, schedule: Q07DX003 (iv), vehicle: water) 107 % of control; (dose: 9.0 mg/kg/injection, schedule: Q07DX003 (iv), vehicle: water) 101 % of control; (dose: 14.0 mg/kg/injection, schedule: Q07DX003 (iv), vehicle: water) 92 % of control.

With `CC(=O)OC1C2(CC3N4C(=O)C5(CO)SSC4(CC31O)C(=O)N5C)OC(C)C(C)(C)C2=O` (centres undefined), the T/C is, setting by setting: (dose: 1.25 mg/kg/injection, schedule: Q04DX002 (ip), vehicle: saline) 97 % of control; (dose: 2.5 mg/kg/injection, schedule: Q04DX002 (ip), vehicle: saline) 108 % of control; (dose: 5.0 mg/kg/injection, schedule: Q04DX002 (ip), vehicle: saline) 87 % of control.

Turning to `CC(=O)C1(O)Cc2c(O)c3c(c(O)c2C(OC2CC(N)C(O)C(C)O2)C1)C(=O)c1ccccc1C3=O` (centres undefined), the T/C by setting is: (dose: 1.4 mg/kg/injection, schedule: Q07DX002 (iv), vehicle: saline) 107 % of control; (dose: 2.3 mg/kg/injection, schedule: Q07DX002 (iv), vehicle: saline) 120 % of control; (dose: 324.0 micrograms/kg/injection, schedule: Q04DX003 (ip), vehicle: water) 157 % of control; (dose: 900.0 micrograms/kg/injection, schedule: Q04DX003 (ip), vehicle: water) 92 % of control.

For the compound `OCCN1CCN(CC/C=C2/c3ccccc3Sc3ccc(C(F)(F)F)cc32)CC1`, the T/C runs as follows: (dose: 3.13 mg/kg/injection, schedule: Q04DX003 (ip), vehicle: saline) 98 % of control; (dose: 6.25 mg/kg/injection, schedule: Q04DX003 (ip), vehicle: saline) 91 % of control; (dose: 12.5 mg/kg/injection, schedule: Q04DX003 (ip), vehicle: saline) 91 % of control.
